Reference: US10987345B2, “Method for assessing the efficacy of IMiDs and composition or combination for use in treating IMiD sensitive diseases” (Klinikum Rechts Der Isar Der Technischen Universitat Munchen, priority 2014, dated 2021)

Key:
Zebrafish larvae = test: Zebrafish teratotoxicity phenotype at 3 dpf; type: in vivo; details: for Phenotype after CD147 knock-down by morpholino: 0.1 mM or 0.25 mM morpholino injected, 3 dpf
Method: Briefly, Zebrafish larvae were injected with different concentrations of splice-Morpholinos targeting all 3 predicted CD147 isoforms in zebrafish or treated with 400 μM Thalidomide on the day of fertilization. On day and 3 after fertilization, the phenotypes of the larvae were analysed.
The wildtype strain AB was used in all experiments. All embryos were kept at 28.5° C. in E3 media (5 mM NaCl, 0.17 mM KCl, 0.33 mM CaCl2, 0.33 mM MgSO4) supplemented with 10^−5% methylene blue. All experiments were performed in accordance with animal protection standards of the Ludwig-Maximilians University Munich and were approved by the government of Upper Bavaria (Regierung von Oberbayem, Munich, Germany).
Knock-down of CD147 in zebrafish was done by microinjection of 2-4 pl of 0.1 mM or 0.25 mM antisense morpholino oligo (Gene Tools, LLC) targeting either a splice junction of CD147 (CD147 splice MO; exonic sequence in upper case: 5′-aagaggtgaagaacatacAAGTGTT-3′ (SEQ ID NO: 18) or the ATG start codon (CD147 ATG MO; 5′-[…]-3′ (SEQ. ID NO: 39) at the 1 cell stage. Injected eggs and controls were cultured at 28° C. in E3 buffer. For each experiment, 50 eggs were injected.
For thalidomide treatment, fertilized embryos were randomly split into two groups at 3 hours post fertilization (hpf): One group was transferred into E3 containing 0.1% DMSO, the other group into E3 with 400 μM thalidomide (Sigma-Aldrich) and kept at 28.5° C. for 3 days.
Larvae were analyzed for Phenotypes at 3 days post fertilization (dpf). For each experiment, 10 embryos were treated. CD147 splice MO-injected larvae were compared to control larvae and thalidomide treated larvae were compared to DMSO controls. Larvae were anesthetized with Tricaine (0.016% w/v) and mounted in 3% methylcellulose on coverslips. DIC images were taken with an Axioplan2 compound microscope (Zeiss).

IKZF1/3 = test: Immunoblot analysis of IKZF1/IKZF3 in myeloma cells; type: cell-based, human; details: MM1S cells; 10 μM lenalidomide, 100 nM pomalidomide, 100 μM thalidomide
Method: HEK 293T and HeLa cells were grown in Dulbecco's modified Eagle's Medium (DMEM), each media containing 10% fetal bovine serum. […] The human multiple myeloma cell lines MM1.S, U266, KMS-12-BM, RPMI 8226 and JJN3 were cultured in RPMI-1640 with 10% FBS. […] Sf9 insect cells (Life technologies) were cultured in Sf-900 II serum-free medium (SFM, Life technologies) supplemented with 10% heat-inactivated FBS and 10 μg/ml gentamycin. High Five cells (Invitrogen) were cultured in Express Five SFM supplemented with 10 mM L-glutamine and 10 μg/ml gentamycin. All cells tested mycoplasma negative by a PCR detection method.
Cell samples were lysed in lysis buffer (NaCl 150 mM, Tris-HCl 50 mM, MgCl2 5 mM, EDTA 1 mM, INP-40 0.1%, Glycerol 5% and inhibitors) for whole cell lysates, immunoprecipitations or pulldown experiments. […] Briefly, the cellular lysates were centrifuged 15 min at 14 000 rpm at 4° C. to separate from cellular debris. Protein concentration in the supernatants was measured before Laemmli buffer was added. The lysates were separated by SDS-PAGE and blotted onto PVDF (polyvinylidene difluoride) membranes. After blotting, PVDF membranes were stained With. […] After washing the beads four times in lysis buffer, Laemmli buffer was added and proteins were analyzed by SDS-electrophoresis.

CD147/MCT1 complex = test: Immunoblot analysis of CD147 and MCT1 protein levels in myeloma cells; type: cell-based, human; details: MM1S cells; 10 μM lenalidomide, 100 nM pomalidomide, 100 μM thalidomide
Method: HEK 293T and HeLa cells were grown in Dulbecco's modified Eagle's Medium (DMEM), each media containing 10% fetal bovine serum. (FBS). The human multiple myeloma cell lines MM1.S, U266, KMS-12-BM, RPMI 8226 and JJN3 were cultured in RPMI-1640 with 10% FBS. […] Sf9 insect cells (Life technologies) were cultured in Sf-900 II serum-free medium (SFM, Life technologies) supplemented with 10% heat-inactivated FBS and 10 μg/ml gentamycin. High Five cells (Invitrogen) were cultured in Express Five SFM supplemented with 10 mM L-glutamine and 10 μg/ml gentamycin. All cells tested mycoplasma negative by a PCR detection method.
Cell samples were lysed in lysis buffer (NaCl 150 mM, Tris-HCl 50 mM, MgCl2 5 mM, EDTA 1 mM, INP-40 0.1%, Glycerol 5% and inhibitors) for whole cell lysates, immunoprecipitations or pulldown experiments. Details of extract preparation, immunoprecipitation, and immunoblotting, were previously described. Briefly, the cellular lysates were centrifuged 15 min at 14 000 rpm at 4° C. to separate from cellular debris. Protein concentration in the supernatants was measured before Laemmli buffer was added. The lysates were separated by SDS-PAGE and blotted onto PVDF (polyvinylidene difluoride) membranes. After blotting, PVDF membranes were stained With. Ponceau solution to evaluate protein loading. After washing and blocking unspecific bindings in 5% milk; the membranes were incubated with primary antibodies. After addition of horseradish peroxidase coupled secondary antibodies, western blot membranes were developed using the ECL (enhanced chemoluminescence) method (SuperSignal West reagents from Thermo Scientific). For immunoprecipitations (IPs), cell lysates were incubated with Flag-M2 agarose beads (Sigma) for Flag-IPs, HA-7 agarose beads (Sigma) for HA-IPs, or protein-A sepharose beads (GE Healthcare) together with primary rabbit antibodies for binding of endogenous proteins (e.g. for CRBN-IP). For the experiments using a protein cross linker, DSS (Pierce) was added to the cells to a final concentration of 1 mM for 45 minutes at RT. The Cross linker was quenched by addition of Tris-HCl, pH 7.5 20 mM and cell lysis was performed as described, with the only exception of HEPES buffer 50 mM, pH 7.5 instead of Tris-HCl buffer. After washing the beads four times in lysis buffer, Laemmli buffer was added and proteins were analyzed by SDS-electrophoresis.

CD147 [1] = test: Semiquantitative RT-PCR verification of CD147 knockdown in zebrafish; type: in vivo; details: CD147 splice morpholino at indicated concentrations
Method: For verification of efficient CD147 knock-down in zebrafish embryos, total RNA of larvae injected with CD147 splice morpholino or control was extracted using the QIAshredder and RNeasy Kit (both Qiagen); cDNA synthesis was performed as described above. PCR reactions were performed on the peqSTAR2x gradient thermocycler (Peqlab) following standard procedures and using the following primers: […]
One fifth of the PCR reaction was loaded onto an agarose gel and subjected to gel electrophoresis.

CD147 [2] = test: Pulse chase analysis of CD147 protein maturation in MM1S cells; type: cell-based, human; details: 35S-Met/Cys pulse-chase
Method: In a complementary approach using pulse-chase analysis, CD147 protein maturation from the immature core-glycosylated to the mature high-glycosylated form necessary for membrane localization was investigated. […] Importantly, treatment with MLN4924, an inhibitor of Cullin-RING ubiquitin ligases, had no effect on CD147 stability or processing, thereby further underscoring a ubiquitin-independent effect of CRBN on CD147 (FIG. 13h).
Labelling of MM1S cells with ^35S-Met/Cys was essentially performed as described previously. […] Newly translated proteins were metabolically labeled for 45 Minutes with methionine- and cysteine-free DMEM containing 0.2 mCi/ml [35S]-Met/Cys. Cells were then washed three times with PBS (37° C.) and incubated with DMEM for up to 24 hours.

Row | Compound | Phenotype after CD147 knock-down by morpholino (Zebrafish larvae) | IKZF1/3 degradation (IKZF1/3) | Destabilization of CD147/MCT1 (CD147/MCT1 complex) | also measured
1 | ATG MO: antisense morpholino oligo targeting the ATG start codon of CD147, 5′-GCGCCAAAGAGCTTCTTTTCCATGC-3′ (SEQ. ID NO: 39) (all phosphorodiamidate morpholino (PMO)) | identical phenotypes as thalidomide treatment | – | – | –
2 | Nc1cccc2c1C(=O)N(C1CCC(=O)NC1=O)C2=O (stereo not drawn) [pomalidomide] | – | restricted to lenalidomide and pomalidomide | destabilize CD147/MCT1 | –
3 | splice MO: antisense morpholino oligo targeting a splice junction of CD147, 5′-aagaggtgaagaacatacAAGTGTT-3′ (SEQ ID NO: 18) (antisense AAGAGGTGAAGAACATACAAGTGTT; all phosphorodiamidate morpholino (PMO)) | identical phenotypes as thalidomide treatment | – | – | CD147 knockdown (RT-PCR) (CD147 [1]): efficient and dose dependent CD147 knockdown
4 | NS(=O)(=O)OC[C@@H]1C[C@@H](n2ccc3c(N[C@H]4CCc5ccccc54)ncnc32)C[C@@H]1O [MLN4924] | – | – | – | CD147 stability or processing (CD147 [2]): no effect
5 | O=C1CCC(N2C(=O)c3ccccc3C2=O)C(=O)N1 (stereo not drawn) [thalidomide, α-N-phthalimido-glutarimide] | – | restricted to lenalidomide and pomalidomide | destabilize CD147/MCT1 | Teratotoxic phenotype (Zebrafish larvae; 400 μM thalidomide, 3 days post fertilization): teratotoxic phenotype, including reduced size of head, fins, and eyes
